Experimental data from PubChem BioAssay AID1918994 (Molecular Pharmacology Branch, DTP, NCI, 2023).
Values joined by “and” are separate entries in the source; they are usually repeats but may differ in a detail not shown here. Identical values can stand only once.

Test system: 292921-168-R-J2-PDC complex spheroid growth
Assay: Anticancer human tumor 292921-168-R-J2-PDC patient-derived pancreatic carcinoma cell line growth inhibition [AhR]
Conditions: for viability, T/C: stronger effect = lower value; active = viability on the fitted dose curve at most 10% of control; inactive = the rest
From the text: Multicellular complex tumor spheroid response to aryl hydrocarbon receptor antagonists in combination with a variety of drugs and investigational agents in selected tumor cell lines
The current study was undertaken to assess response to aryl hydrocarbon receptor antagonists in combination with standard-of-care drugs and investigational agents in solid tumor complex spheroid models. Complex spheroids include a stromal component modeled by human endothelial cells (HUVEC) and fibroblasts modeled by human mesenchymal stem cells (MSCs). The concentration ranges selected for each drug and investigational agent were based upon clinically achievable concentrations if the clinical Cmax of the agent was known.
Compounds. The drugs and investigational agents: BAY 2416964 (NSC825713), GNF351 (NSC835774), CH-223191 (NSC835775), CPI-455 (NSC825282), aza-TdCyd (NSC777586), decitabine (NSC127716), belinostat (NSC758774), entinostat (NSC756642), pevonedistat (NSC761192), tazemetostat (NSC777109), talazoparib (NSC765396), olaparib (NSC753686), selinexor (NSC780203), nedisertib (M3814, NSC802822), bortezomib (NSC756655), venetoclax (NSC766270), doxorubicin (NSC123127), elimusertib (BAY189344, NSC800525), ceralasertib (AZD6738, NSC777638), TAK-243 (NSC785004), alisertib (NSC759677), etoposide (NSC141540), topotecan (NSC609699), eribulin (NSC707389), gemcitabine (NSC613327), carboplatin (NSC241240), cisplatin (NSC119875), and SN-38 (NSC673596) were obtained from the National Cancer Institute (NCI) Developmental Therapeutics Program Chemical Repository (32). The FDA-approved anticancer drug set is available from the Developmental Therapeutics Program at https://dtp.cancer.gov/organization/dscb/obtaining/available plates.htm. […] The stock solutions were prepared in dimethyl sulfoxide (DMSO, Sigma-Aldrich, St. Louis, MO, cat. D2650), except for the platinum compounds which were prepared in saline (Quality Biological, Gaithersburg, MD, cat. 114-055-101), at 800-fold the tested concentration and stored at -70 degrees C prior to their use. All drugs and investigational agents were tested over a range starting from a high concentration at or near the clinical Cmax and decreasing in half-log increments. If the clinical Cmax for an agent had not been determined, the highest concentration tested was 10 microM (Table 1).
Cell Culture. All cells were maintained in an incubator at 37 degrees C and 5% CO2 with 95% humidity. The PDC lines were cultured according to standard operating procedures established by the NCI PDMR (https://pdmr.cancer.gov). Briefly, all PDCs were thawed and cultured in Matrigel-coated flasks prepared with a working solution of 1X Ham's F-12 nutrient mix, without supplementation (Invitrogen, Waltham, MA, cat. 11765054), 100 U/mL penicillin-streptomycin (Invitrogen, cat. 15140122), and 2.5% Matrigel (Corning Inc., Corning, NY, cat. 354248) for the first three passages. All PDCs were cultured in complete DMEM/F-12 media containing advanced DMEM/F-12 (Invitrogen, cat. 12634028), 4.9% defined fetal bovine serum, heat inactivated (HyClone Laboratories Inc., Logan, UT, cat. SH30070.03HI), 389 ng/mL hydrocortisone (Sigma-Aldrich, cat. H4001), 9.7 ng/mL human EGF recombinant protein (Invitrogen, cat. PHG0313), 23.4 microg/mL adenine (Sigma-Aldrich, cat. A2786), 97.3 U/mL penicillin-streptomycin (Invitrogen, cat. 15140122), 1.9 mM L-glutamine (Invitrogen, cat. 25030081), and 9.7 microM Y-27632 dihydrochloride (Tocris Bioscience, Bristol, United Kingdom, cat. 1254). The PDCs were cultured in complete DMEM/F12 media without 10 microM Y-27632 dihydrochloride for at least two passages prior to the screen. The established cell lines NCI-H1341 and […] were cultured in DMEM/F-12, HEPES (Invitrogen, cat. 11330032), 5% defined fetal bovine serum (HyClone Laboratories Inc., cat. SH30070.03), ITS premix universal culture supplement [insulin (5 microg/mL), transferrin (5 microg/mL), and selenious acid (5 ng/mL)] […]

[1] = curve of first compound, second compound 0.1 µM
[2] = curve of first compound, second compound 0.316 µM
[3] = curve of first compound, second compound 1 µM
[4] = curve of first compound, second compound 3.16 µM
[5] = curve of first compound, second compound 10 µM
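Note: spheroids exposed to compounds for seven days after three days of growth.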

COc1cc(Nc2ncc3c(n2)-c2ccc(Cl)cc2C(c2c(F)cccc2OC)=NC3)ccc1C(=O)O + Cc1cncc(-c2nc(NCCc3c[nH]c4ccccc34)c3ncn(C(C)C)c3n2)c1
inactive: viability, T/C (second compound 0.1 µM, first compound 0.0316 µM) 50.6% | viability, T/C (second compound 0.1 µM, first compound 0.1 µM) 45% | viability, T/C (second compound 0.1 µM, first compound 0.316 µM) 50% | viability, T/C (second compound 0.1 µM, first compound 1 µM) 45.6% | viability, T/C (second compound 0.1 µM, first compound 3.16 µM) 46.1% | viability, T/C (second compound 0.1 µM, first compound 10 µM) 33.5% | viability, T/C (second compound 0.316 µM, first compound 0.0316 µM) 49.9% | viability, T/C (second compound 0.316 µM, first compound 0.1 µM) 43.3% | viability, T/C (second compound 0.316 µM, first compound 0.316 µM) 52% | viability, T/C (second compound 0.316 µM, first compound 1 µM) 45.9% | viability, T/C (second compound 0.316 µM, first compound 3.16 µM) 46.5% | viability, T/C (second compound 0.316 µM, first compound 10 µM) 33.2% | viability, T/C (second compound 1 µM, first compound 0.0316 µM) 46.7% | viability, T/C (second compound 1 µM, first compound 0.1 µM) 40.3% | viability, T/C (second compound 1 µM, first compound 0.316 µM) 47.8% | viability, T/C (second compound 1 µM, first compound 1 µM) 44.3% | viability, T/C (second compound 1 µM, first compound 3.16 µM) 41.9% | viability, T/C (second compound 1 µM, first compound 10 µM) 30.4% | viability, T/C (second compound 3.16 µM, first compound 0.0316 µM) 44.6% | viability, T/C (second compound 3.16 µM, first compound 0.1 µM) 38.7% | viability, T/C (second compound 3.16 µM, first compound 0.316 µM) 42.4% | viability, T/C (second compound 3.16 µM, first compound 1 µM) 39.3% | viability, T/C (second compound 3.16 µM, first compound 3.16 µM) 35.5% | viability, T/C (second compound 3.16 µM, first compound 10 µM) 28% | viability, T/C (second compound 10 µM, first compound 0.0316 µM) 40.4% | viability, T/C (second compound 10 µM, first compound 0.1 µM) 35% | viability, T/C (second compound 10 µM, first compound 0.316 µM) 38.5% | viability, T/C (second compound 10 µM, first compound 1 µM) 35.4% | viability, T/C (second compound 10 µM, first compound 3.16 µM) 32.4% | viability, T/C (second compound 10 µM, first compound 10 µM) 26.3%
< 31.6 nM: IC50 [1] | IC50 [2] | IC50 [3] | IC50 [4] | IC50 [5]

Nc1ncn(C2CC(O)C(CO)S2)c(=O)n1 (configuration not stated) + CC(CO)NC(=O)c1cc(-c2ccc(Cl)cc2)nn(-c2cnn(C)c2)c1=O
> 300 nM: IC50 [1] | IC50 [2] | IC50 [3] | IC50 [4] | IC50 [5]
inactive: viability, T/C (second compound 0.1 µM, first compound 0.000949 µM) 94.1% | viability, T/C (second compound 0.1 µM, first compound 0.003 µM) 94% | viability, T/C (second compound 0.1 µM, first compound 0.00949 µM) 98.8% | viability, T/C (second compound 0.1 µM, first compound 0.03 µM) 91% | viability, T/C (second compound 0.1 µM, first compound 0.0949 µM) 88.9% | viability, T/C (second compound 0.1 µM, first compound 0.3 µM) 73.5% | viability, T/C (second compound 0.316 µM, first compound 0.000949 µM) 92.3% | viability, T/C (second compound 0.316 µM, first compound 0.003 µM) 95% | viability, T/C (second compound 0.316 µM, first compound 0.00949 µM) 96.3% | viability, T/C (second compound 0.316 µM, first compound 0.03 µM) 92.6% | viability, T/C (second compound 0.316 µM, first compound 0.0949 µM) 82.7% | viability, T/C (second compound 0.316 µM, first compound 0.3 µM) 77.7% | viability, T/C (second compound 1 µM, first compound 0.000949 µM) 97.7% | viability, T/C (second compound 1 µM, first compound 0.003 µM) 103% | viability, T/C (second compound 1 µM, first compound 0.00949 µM) 102% | viability, T/C (second compound 1 µM, first compound 0.03 µM) 91.8% | viability, T/C (second compound 1 µM, first compound 0.0949 µM) 87.8% | viability, T/C (second compound 1 µM, first compound 0.3 µM) 80.7% | viability, T/C (second compound 3.16 µM, first compound 0.000949 µM) 90.7% | viability, T/C (second compound 3.16 µM, first compound 0.003 µM) 88.3% | viability, T/C (second compound 3.16 µM, first compound 0.00949 µM) 89.4% | viability, T/C (second compound 3.16 µM, first compound 0.03 µM) 83.2% | viability, T/C (second compound 3.16 µM, first compound 0.0949 µM) 82.7% | viability, T/C (second compound 3.16 µM, first compound 0.3 µM) 72.2% | viability, T/C (second compound 10 µM, first compound 0.000949 µM) 71.9% | viability, T/C (second compound 10 µM, first compound 0.003 µM) 67.7% | viability, T/C (second compound 10 µM, first compound 0.00949 µM) 67.6% | viability, T/C (second compound 10 µM, first compound 0.03 µM) 67.4% | viability, T/C (second compound 10 µM, first compound 0.0949 µM) 61.9% | viability, T/C (second compound 10 µM, first compound 0.3 µM) 60.5%

CC1COCCN1c1cc(-c2ccnn2C)c2ccnc(-c3ccn[nH]3)c2n1 (configuration not stated)
inactive: viability, T/C (compound 0.00316 µM) 99.6% and 103% and 96.5% | viability, T/C (compound 0.01 µM) 90.4% and 97.9% and 92.8% | viability, T/C (compound 0.0316 µM) 65.1% and 66.1% and 56.9% | viability, T/C (compound 0.1 µM) 36.3% and 32.1% and 32.4% | viability, T/C (compound 0.316 µM) 23.2% and 19.6% and 21.7% | viability, T/C (compound 1 µM) 19.2% and 17.7% and 17.8%
58 nM and 54.7 nM and 45.7 nM: IC50 (curve of compound)
